Data on 1 substance can be found in patent US20010034328A1, “Treatment of male chronic pelvic pain syndrome” (priority 2000, published 2001).

Series [1] deals with terminally ill cancer patients. To be noted: approximately 900-2100 mg/day for up to 8 months; twenty-one patients; cited from earlier work.
The test system of series [2] is male subjects exhibiting signs and symptoms of Category III prostatitis. To be noted: 200 mg bid, cited from earlier work.
In series [3] the test system is male subjects having a clinical diagnosis of chronic pelvic pain syndrome. The series can be described thus: treatment of male subjects with chronic pelvic pain syndrome with 600-900 mg per day. The format is in vivo, human. To be noted: 600, 700, 800 or 900 mg per day orally, up to sixteen weeks or more. The procedure:
Utilizing capsules prepared as above and 100 mg capsules available from ALZA Corporation as appropriate to meet the daily dosing requirements, male subjects having a clinical diagnosis of chronic pelvic pain syndrome are treated with 600, 700, 800 or 900 mg per day of pentosan polysulfate sodium for up to sixteen weeks, generally 1-2 weeks, 2-4 weeks, 4-8 weeks, 8-16 weeks or up to 32 weeks or more. The daily doses may be administered in multiple doses, generally three times per day with each dose containing equal amounts of pentosan polysulfate. As examples, the daily 600 mg dose may be administered as two 300 mg capsules of pentosan polysulfate as described herein in the morning and evening, or as three 200 mg doses (two 100 mg capsules) in the morning, at mid-day and in the evening. Typically, administration is in the non-fed mode with subjects receiving the doses either at least one hour before a meal or at least two hours after a meal. Daily 900 mg doses may be administered as three 300 mg capsules in the morning, at mid-day and in the evening. As with the 600 mg daily dose, administration typically is in the non-fed mode with subjects receiving the doses either at least one hour before a meal or at least two hours after a meal. […]

For series [4] the following is noted: cited from earlier work.

pentosan polysulfate: the “patients who experienced some degree of bleeding from the rectum or digestive tract” value in series [1] is reported as “Twenty”. In series [2] (after 3 months of treatment, compared with placebo), the median measurement score result was “lowered to a greater extent than the placebo group”. Moreover, the “difference between the treatment group and the placebo group” value in series [2] (after 3 months of treatment) is “no evident difference”. In addition, the symptoms of myalgia/arthralgia result in series [2] (treatment group) is recorded as “some improvement”. Besides, the “relief of intensity and frequency of symptoms (pain, frequency and urgency of urination, nocturia, ejaculatory pain, impotence)” value in series [3] is recorded as “can experience relief”. In addition, the oral bioavailability entry in series [4] is “approximately 3%”.
